Laboratory results taken from paper PMC7899551, “Phase 1 study of Z-endoxifen in patients with advanced gynecologic, desmoid, and hormone receptor-positive solid tumors” (Oncotarget, 2021).
Where “and” joins values, the source holds several entries; their conditions need not be identical. Equal values may be shown once.

How the values were obtained:
ERα = conditions: cited from earlier work
ERβ = conditions: cited from earlier work
[1] = Plasma pharmacokinetics of Z-endoxifen (HPLC assay, non-compartmental analysis); format: in vivo, human
Protocol: This was an open-label trial of Z-endoxifen in patients with advanced solid tumors (https://clinicaltrials.gov/ identifier: NCT01273168). Z-endoxifen-HCl was supplied by the Pharmaceutical Management Branch, National Cancer Institute, as 20 and 40 mg capsules; agent was administered orally once daily on a continuous schedule in 28-day cycles with a starting dose of 20 mg/day taken either 1 hour before or 2 hours after meals. Dose escalation followed a traditional 3+3 design in which patients were dose-escalated to the next dose level (DL) in cohorts of 3 patients until dose-limiting toxicity (DLT) was observed. DLT was defined as an adverse event that occurred during cycle 1, was thought to be related to study drug administration, and met one of the following criteria: grade ≥ 3 non-hematologic toxicities (except diarrhea, nausea and vomiting, alopecia, rising creatinine or electrolyte toxicities that resolved within 24 hours, or intolerable estrogen withdrawal symptoms) or grade ≥ 3 hematologic toxicities (except neutropenia lasting less than 5 days, lymphopenia, or anemia). Eight dose levels (DL1-8) were examined: 20, 40, 60, 100, 140, 200, 280, and 360 mg, respectively. Two patients at DL8 received the free base form of Z-endoxifen on day 1 rather than the hydrochloride salt to assess the pharmacokinetics of that formulation.
A 3-mL blood sample was collected in a K2 EDTA tube on day 1 of cycle 1 before drug administration and at the following times post-first dose: 0.5, 1, 2, 3, 4, 6, 8, and 24 hours. Samples were collected at the same time points on day 28 of cycle 1 for DL1-6 until a protocol amendment eliminated the requirement for these samples at the higher dose levels. Samples were wrapped in aluminum foil after collection to protect from light exposure. A 10-mL aliquot of urine was collected before agent administration on cycle 1 day 1, for 24 hours after dosing on day 1, and before drug administration on cycle 2 day 1; samples were refrigerated prior to analysis.
Plasma and urine concentrations of Z- and E-endoxifen were measured using a validated, post-column fluorescence derivatization HPLC assay. Non-compartmental pharmacokinetic parameters were calculated using WinNonlin version 7.0 (Pharsight Corp., Mountainview, CA, USA). A 2 μM Cmax target was established for day 28 plasma concentration. The amount of Z-endoxifen excreted in urine was measured over a 24-hour collection period.

[2] = tested on: hormone-refractory prostate cancer; conditions: 200 mg/m^2/day, men with hormone-refractory prostate cancer; cited from earlier work
ovarian cancer = conditions: patients with ovarian cancer; cited from earlier work
[3] = tested on: metastatic ER+ breast cancer; conditions: women with metastatic ER+ breast cancer; cited from earlier work
[4] = free base, 360 mg oral, day 1, mean of patients 35 and 36
[5] = free base, 360 mg oral, day 1, patients 35 and 36 individually

For 4-hydroxy-tamoxifen, the “binding affinity relative to tamoxifen or NDM-tamoxifen” value (ERα) is given as “approximately 100 fold” and the “binding affinity relative to tamoxifen or NDM-tamoxifen” value (ERβ) is given as “approximately 100 fold”.
With CC/C(=C(/c1ccc(O)cc1)c1ccc(OCCNC)cc1)c1ccccc1 [E-endoxifen] the “Plasma concentration as percentage of Z-endoxifen levels” value ([1]; after oral Z-endoxifen) was less than 2%.
In the case of CC/C(=C(\c1ccc(O)cc1)c1ccc(OCCNC)cc1)c1ccccc1 [Endoxifen, 4-hydroxy-N-desmethyl-tamoxifen], the “binding affinity relative to tamoxifen or NDM-tamoxifen” value (ERα) is listed as “approximately 100 fold” and the “binding affinity relative to tamoxifen or NDM-tamoxifen” value (ERβ) is listed as “approximately 100 fold”.
With CC/C(=C(\c1ccc(O)cc1)c1ccc(OCCNC)cc1)c1ccccc1 [free base form of Z-endoxifen] the “AUC(0–24 h), Mean” value [1, 4] was 25248 ng·h/mL, the “C24 h, Mean” value [1, 4] was 790 ng/mL and the Cmax, Mean [1, 4] was 1770 ng/mL. For the same compound, the “Tmax, Mean” value [1, 4] was 5.0 h, the “AUC(0–24 h)” value [1, 5] was 8959 ng·h/mL and 41537 ng·h/mL and the C24h [1, 5] was 12 ng/mL and 1568 ng/mL. For the same compound, the Tmax [1, 5] was 6.0 h and 4.0 h.
For CC/C(=C(\c1ccccc1)c1ccc(OCCN(C)C)cc1)c1ccccc1 [tamoxifen], the “mean plasma tamoxifen concentration” value [2] is given as 2.94 (± 1.15) μM, the complete responses (ovarian cancer) is given as 4% and the partial responses (ovarian cancer) is given as 9%. The stable disease (ovarian cancer) was 38% and the women deriving benefit [3] was “about 50%”.
